Test results published in US20230139883A1, “Peptides for Inducing Differentiation” (Shimadzu Corporation, priority 2020, published 2023).

Legend:
iPS-hFB [1] = experiment: Differentiation induction of iPS cells into cardiomyocytes: observation of beating cell clusters; details: Example 3: 0.05 μM peptide + Activin A on Day 1, no bFGF
FGFR1 = experiment: Phage display selection against FGFR1 with Miseq analysis of the bound phages; format: binding
Experimental: The collected phage library was mixed with 100 nM of FGFR3 solution and allowed to react overnight at 4° C. (Table 5: Panning Round 1). After the reaction, the binding phages were captured by magnetic beads modified with protein A, and washed three times with PBS-T, followed by eluting the bound phages with Gly-HCl (pH 2.0). After neutralizing with 2M Tris, the phages were infected to E. coli. After 4 hours of incubation, helper phages were added, and the E. coli were allowed to produce phages overnight. Next, phage solution was prepared from the culture supernatant. The prepared phage solution was mixed with FGFR3 solution and allowed to react overnight at 4° C. (Table 5: Panning Round 2). After the reaction, the bound phages were eluted. Phage solution prepared in the same way was mixed with FGFR3 solution and allowed to react at 4° C. for 1 hour (Table 5: Panning Round 3). After the reaction, the bound phages were eluted. This operation was repeated two more times, and after Panning Round 5, the bound phages were eluted. Note that as the rounds proceeded, the number of washes with PBS-T was increased. (Table 5). The titer of the Output phage in each round was also determined. The titer of phage was determined from the number of colonies obtained by incubating the E. coli TG1 strain contacted with the phage at 37° C. overnight. As shown in FIG. 3<Input phage (Round 5)>, the eluted phage library after panning was subjected to Human IgG Fc-immobilized plate, and negative selection was performed by collecting unbound phages. The phage library was then acted to FGFR1 prepared to concentrations of 100 nM, 10 nM, and 1 nM. Bound phages were then collected. The phagemid DNA of the collected phages was extracted, samples were prepared according to Illumina's protocol for Miseq, and a comprehensive analysis of the phagemid DNA was performed. Among the sequences obtained, 23 sequences with high incidence rates were selected (Table 6).

iPS-hFB [2] = format: cell-based
Experimental: An attempt to apply 100nX to a differentiation induction system from iPS cells to hepatocytes was made. […] Then, cells were seeded in 6-well plates at 1.5×10^5 cells/well. […] The medium was replaced on Day 3 using the same medium. The medium was removed on Day 5 and RPMI1640 supplemented with B-27 Plus Supplement (Thermo), 20 ng/mL BMP4, and 20 ng/mL bFGF was added at 2 mL/well (conventional protocol; FIG. 14, protocol 1). […] Further, as a control group, RPMI1640 supplemented with B-27 Plus Supplement (Thermo), and 20 ng/mL BMP4 was added at 2 mL/well (conventional protocol; FIG. 14, protocol 2). The medium was replaced on Day 8 using the same medium. In all conditions, the medium was removed on Day 10, and RPMI1640 supplemented with B-27 Plus Supplement (Thermo), and 20 ng/mL HGF was added at 2 mL/well. The medium was replaced on Day 12 and Day 14 using the same medium. The medium was exchanged with HCM BulletKit (Lonza) (containing HBM, Ascorbic Acid, BSA-FAF, Hydrocortisone, Transferin, GA-1000, and Insulin) on Day 15 at 2 mL/well. On Day 17 and Day 18, the medium was exchanged with the same medium.

FGFR = experiment: Binding to FGFR by surface plasmon resonance (Biacore T200); details: SPR, 25° C., FGFR1, FGFR2 or FGFR3 immobilized (FIG. 4)
Excerpt: One clone was selected from the amino acid sequences of the clones obtained above, and the peptide of 100nX (X is 9: SEQ ID NO: 9, the same shall apply hereinafter.) was synthesized. The peptide was synthesized based on the Fmoc solid-phase synthesis method. To measure the binding activity of the peptides, according to the operation manual of the SPR instrument Biacore T200 (GE Healthcare), FGFR1 was immobilized as a ligand to the instrument's sensor chip CMS using the amine coupling method. In addition, to confirm binding to other FGFR species, FGFR2 or FGFR3-immobilized sensor chips were also prepared. Ethanolamine was immobilized as a reference, and the samples were measured as analyte.
All measurements were performed at 25° C. and HBS-EP+ was used as the running buffer. After injecting the running buffer dissolving the peptide into the CMS sensor chip immobilized with various FGFRs (flow rate 30 μl/min, 2 min), the peptide was dissociated by flowing the running buffer for 3 min. The obtained sensorgram was directly curve-fitted with the reaction equation, and the rate constant was calculated by a nonlinear least-squares method. Dissociation constants were calculated by kinetic analysis using Biacore T200 Evaluation Software (GE Healthcare). A 1:1 binding model was used in the analysis.

iPS-hFB [3] = experiment: CYP3A4 activity (luciferin-IPA) of hepatocytes induced to differentiate from iPS cells; format: cell-based; details: Day 20, luminescence corrected by protein
Experimental: Differentiation of iPS cells was induced in the same manner as in Example 13. After the cells were washed with PBS on Day 20, the medium was exchanged with HCM BulletKit (Lonza) containing 3 μM luciferin-IPA at 1 mL/well. After 1 hour of reaction at 37° C., 100 μL of the supernatant was transferred to a 96-well white plate., and Luciferin Detection Reagent was added at 100 μL/well. After 20 minutes of reaction at room temperature, the luminescence was measured. The cells were also crushed and the luminescence value was corrected by quantifying proteins with TaKaRa BCA Protein Assay Kit (Takara Bio).

iPS-hFB [4] = experiment: Differentiation induction of iPS cells into neurons: RT-qPCR of SYN1, MAP2 and Nr2f1; format: cell-based; details: for Nr2f1 gene expression level: 0.25 nM peptide on Day 3, Day 35
Experimental: An attempt to apply 100nX to a differentiation induction system from iPS cells to neurons was made. […] A group in which G-MEM supplemented with 20% KSR (Thermo), 1xNEAA (Thermo), 0.1 mM 2-mercaptoethanol (Wako Pure Chemicals), 1 mM sodium pyruvate (Thermo), 20 μM Y27632 (Wako Pure Chemicals), 3 μM IWR-1-endo (Wako Pure Chemicals), 5 μM SB431542 (Wako Pure Chemicals) was added at 100 μL/well was prepared as a control group (FIG. 14, protocol 2). On Day 6, the entire medium was replaced with the medium of each condition containing no Y27632 (Wako Pure Chemicals). Likewise, the medium was exchanged at Day 10 and Day 14. The medium was removed on Day 18 and the cells added with DMEM/F12 (GlutaMax) (Thermo) containing 1% N-2 Supplement and 1% Chemically Defined Lipid Concentrate were transferred to EZSPHERE (AGC Technoglass) at 2 mL/well. On Day 21, 24, and 27, the medium was replaced with DMEM/F12 (GlutaMax) (Thermo) containing 1% N-2 Supplement. Further, On Day 30, and 33, the medium was replaced with DMEM/F12 (GlutaMax) (Thermo) containing 1% N-2 Supplement and 1% Chemically Defined Lipid Concentrate.

iPS-hFB [5] = experiment: Differentiation induction of iPS cells into cardiomyocytes: RT-qPCR of cardiomyocyte markers cTNT and Actinin; details: Example 4: peptide in combination with bFGF, Day 23; compared to conventional protocol 1
[6] = 0.25 nM peptide, Day 35, compared to control protocol 2 (no bFGF)

Sequence: CAAELAALEAELAALEGVPGDNNGTRGKLYHLKNKLHRLKNAC [100n9]
- day on which beating cell clusters were observed (iPS-hFB [1]): ≥ 16 days
- 1 nM Num. of reads (FGFR1; phage library after panning Round 5, bound to 1 nM FGFR1): 6403
- 10 nM Num. of reads (FGFR1; phage library after panning Round 5, bound to 10 nM FGFR1): 7169
- 100 nM Num. of reads (FGFR1; phage library after panning Round 5, bound to 100 nM FGFR1): 6135
- 1 nM Ranking (FGFR1; rank by number of reads, 1 nM FGFR1): 4
- 10 nM Ranking (FGFR1; rank by number of reads, 10 nM FGFR1): 3
- 100 nM Ranking (FGFR1; rank by number of reads, 100 nM FGFR1): 3
- promotion of hepatic differentiation (iPS-hFB [2]): as effective as or better than conventional bFGF
- binding affinity to the FGFR (FGFR): high binding affinity
- CYP3A4 activity (iPS-hFB [3]; compared to control protocol 2 (BMP4)): significantly increased
- CYP3A4 activity (iPS-hFB [3]; compared to conventional protocol 1 (BMP4, bFGF)): similar
- Nr2f1 gene expression level (iPS-hFB [4]; compared to control protocol 2 (no bFGF)): significantly increased
- Nr2f1 gene expression level (iPS-hFB [4]; compared to conventional protocol 1 (bFGF)): similar
- MAP2 gene expression level (iPS-hFB [4]; [6]): tended to increase
- SYN1 gene expression level (iPS-hFB [4]; [6]): tended to increase
- promotion of / contribution to neural differentiation (iPS-hFB [4]; overall, relative to bFGF): as effective as conventional bFGF
- gene expression levels (cTNT, ACTN2) (iPS-hFB [5]): significantly increased
